Test results reported in PubChem BioAssay AID2060511 (Molecular Pharmacology Branch, DTP, NCI, 2025).
pIC50: −log10 of the molar value.

System: 422866-222-R5-J1-PDC spheroids with HUVEC/MSC, viability
Assay: Anticancer human tumor 422866-222-R5-J1-PDC patient-derived pancreatic adenocarcinoma cell line growth inhibition [GQUAD]
Details: for pIC50: curve of first compound; for viability, T/C: stronger effect = lower value
Procedure, shortened: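 Tumor cells were grown as complex spheroids with HUVEC endothelial cells and mesenchymal stem cells as stroma. G-quadruplex stabilizers were combined with targeted agents over half-log dilutions from near the clinical Cmax, or from 10 microM.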

[1] = second compound 0.0316 µM, first compound 0.0316 µM
[2] = second compound 0.0316 µM, first compound 0.316 µM
[3] = second compound 0.1 µM, first compound 0.0316 µM
[4] = second compound 0.1 µM, first compound 0.316 µM
[5] = second compound 0.316 µM, first compound 0.0316 µM
[6] = second compound 0.316 µM, first compound 0.316 µM
[7] = second compound 1 µM, first compound 0.0316 µM
[8] = second compound 1 µM, first compound 0.316 µM
[9] = second compound 3.16 µM, first compound 0.0316 µM
[10] = second compound 3.16 µM, first compound 0.316 µM
[11] = second compound 10 µM, first compound 0.0316 µM
[12] = second compound 10 µM, first compound 0.316 µM
[13] = second compound 0.0316 µM, first compound 0.1 µM
[14] = second compound 0.0316 µM, first compound 1 µM
[15] = second compound 0.0316 µM, first compound 3.16 µM
[16] = second compound 0.0316 µM, first compound 10 µM
[17] = second compound 0.1 µM, first compound 0.1 µM
[18] = second compound 0.1 µM, first compound 1 µM
[19] = second compound 0.1 µM, first compound 3.16 µM
[20] = second compound 0.1 µM, first compound 10 µM
[21] = second compound 0.316 µM, first compound 0.1 µM
[22] = second compound 0.316 µM, first compound 1 µM
[23] = second compound 0.316 µM, first compound 3.16 µM
[24] = second compound 0.316 µM, first compound 10 µM
[25] = second compound 1 µM, first compound 0.1 µM
[26] = second compound 1 µM, first compound 1 µM
[27] = second compound 1 µM, first compound 3.16 µM
[28] = second compound 1 µM, first compound 10 µM
[29] = second compound 3.16 µM, first compound 0.1 µM
[30] = second compound 3.16 µM, first compound 1 µM
[31] = second compound 3.16 µM, first compound 3.16 µM
[32] = second compound 3.16 µM, first compound 10 µM
[33] = second compound 10 µM, first compound 0.1 µM
[34] = second compound 10 µM, first compound 1 µM
[35] = second compound 10 µM, first compound 3.16 µM
[36] = second compound 10 µM, first compound 10 µM
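Also: spheroids exposed to compounds for seven days before reading.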
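For viability, T/C in this document: percent viability relative to DMSO vehicle control taken as 100%.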

## CCc1c2c(nc3ccc(O)cc13)-c1cc3c(c(=O)n1C2)COC(=O)[C@]3(O)CC + Cc1cnc(CNC(=O)c2c(=O)c3ccc(N4CCCN(C)CC4)nc3n3c2sc2ccccc23)cn1
Second compound 0.0316 µM
  pIC50: 8.73
Second compound 0.1 µM
  pIC50: 7.80
Second compound 0.316 µM
  pIC50: 7.59
Second compound 1 µM
  pIC50: 7.14
Second compound 3.16 µM
  pIC50: 7.21
Second compound 10 µM
  pIC50: 6.97
Second compound 0.0316 µM, first compound 0.000999 µM
  viability, T/C: 56.2%
Second compound 0.0316 µM, first compound 0.00316 µM
  viability, T/C: 42.2%
Second compound 0.0316 µM, first compound 0.00999 µM
  viability, T/C: 44.1%
[1]
  viability, T/C: 41.3%
Second compound 0.0316 µM, first compound 0.0999 µM
  viability, T/C: 37.7%
[2]
  viability, T/C: 24.5%
Second compound 0.1 µM, first compound 0.000999 µM
  viability, T/C: 66.8%
Second compound 0.1 µM, first compound 0.00316 µM
  viability, T/C: 59.2%
Second compound 0.1 µM, first compound 0.00999 µM
  viability, T/C: 50.4%
[3]
  viability, T/C: 46.3%
Second compound 0.1 µM, first compound 0.0999 µM
  viability, T/C: 44.9%
[4]
  viability, T/C: 34.8%
Second compound 0.316 µM, first compound 0.000999 µM
  viability, T/C: 75.4%
Second compound 0.316 µM, first compound 0.00316 µM
  viability, T/C: 63.1%
Second compound 0.316 µM, first compound 0.00999 µM
  viability, T/C: 56.4%
[5]
  viability, T/C: 47.7%
Second compound 0.316 µM, first compound 0.0999 µM
  viability, T/C: 46.6%
[6]
  viability, T/C: 30.2%
Second compound 1 µM, first compound 0.000999 µM
  viability, T/C: 73.4%
Second compound 1 µM, first compound 0.00316 µM
  viability, T/C: 76%
Second compound 1 µM, first compound 0.00999 µM
  viability, T/C: 59.6%
[7]
  viability, T/C: 59.4%
Second compound 1 µM, first compound 0.0999 µM
  viability, T/C: 49.3%
[8]
  viability, T/C: 28.2%
Second compound 3.16 µM, first compound 0.000999 µM
  viability, T/C: 70.2%
Second compound 3.16 µM, first compound 0.00316 µM
  viability, T/C: 77.4%
Second compound 3.16 µM, first compound 0.00999 µM
  viability, T/C: 62.5%
[9]
  viability, T/C: 55.7%
Second compound 3.16 µM, first compound 0.0999 µM
  viability, T/C: 46.5%
[10]
  viability, T/C: 26.3%
Second compound 10 µM, first compound 0.000999 µM
  viability, T/C: 72.5%
Second compound 10 µM, first compound 0.00316 µM
  viability, T/C: 74.8%
Second compound 10 µM, first compound 0.00999 µM
  viability, T/C: 68%
[11]
  viability, T/C: 60.2%
Second compound 10 µM, first compound 0.0999 µM
  viability, T/C: 54.9%
[12]
  viability, T/C: 22.1%

## COc1ncnc(C2CC2)c1-c1ncc2cnn(Cc3ccc(-c4nc(C(F)(F)F)cn4C(C)C)cc3)c2n1 + CN(C)c1ccc(Nc2c3ccc(NC(=O)CCN4CCCC4)cc3nc3cc(NC(=O)CCN4CCCC4)ccc23)cc1
Second compound 0.0316 µM
  pIC50: < 5.00
Second compound 0.1 µM
  pIC50: < 5.00
Second compound 0.316 µM
  pIC50: < 5.00
Second compound 1 µM
  pIC50: < 5.00
Second compound 3.16 µM
  pIC50: < 5.00
Second compound 10 µM
  pIC50: < 5.00
[1]
  viability, T/C: 92.7%
[13]
  viability, T/C: 88.3%
[2]
  viability, T/C: 124%
[14]
  viability, T/C: 93%
[15]
  viability, T/C: 90%
[16]
  viability, T/C: 104%
[3]
  viability, T/C: 116%
[17]
  viability, T/C: 104%
[4]
  viability, T/C: 109%
[18]
  viability, T/C: 94.9%
[19]
  viability, T/C: 100%
[20]
  viability, T/C: 100%
[5]
  viability, T/C: 104%
[21]
  viability, T/C: 89.8%
[6]
  viability, T/C: 100%
[22]
  viability, T/C: 94.3%
[23]
  viability, T/C: 106%
[24]
  viability, T/C: 100%
[7]
  viability, T/C: 90.7%
[25]
  viability, T/C: 92.2%
[8]
  viability, T/C: 101%
[26]
  viability, T/C: 90.9%
[27]
  viability, T/C: 97.1%
[28]
  viability, T/C: 84.5%
[9]
  viability, T/C: 85.8%
[29]
  viability, T/C: 102%
[10]
  viability, T/C: 101%
[30]
  viability, T/C: 92.9%
[31]
  viability, T/C: 103%
[32]
  viability, T/C: 69.9%
[11]
  viability, T/C: 98.6%
[33]
  viability, T/C: 109%
[12]
  viability, T/C: 104%
[34]
  viability, T/C: 69.3%
[35]
  viability, T/C: 86.8%
[36]
  viability, T/C: 58%

## CC(C)(O)C1CCC(Nc2ccc3ncc(-c4cccc(C(F)(F)F)c4)n3n2)CC1 (stereo not drawn) + CN(C)c1ccc(Nc2c3ccc(NC(=O)CCN4CCCC4)cc3nc3cc(NC(=O)CCN4CCCC4)ccc23)cc1
Second compound 0.0316 µM
  pIC50: 5.68
Second compound 0.1 µM
  pIC50: 5.57
Second compound 0.316 µM
  pIC50: 5.77
Second compound 1 µM
  pIC50: 5.75
Second compound 3.16 µM
  pIC50: 5.80
Second compound 10 µM
  pIC50: < 5.00
[1]
  viability, T/C: 88%
[13]
  viability, T/C: 80.5%
[2]
  viability, T/C: 92.9%
[14]
  viability, T/C: 71.8%
[15]
  viability, T/C: 38.4%
[16]
  viability, T/C: 33.1%
[3]
  viability, T/C: 90.2%
[17]
  viability, T/C: 87.4%
[4]
  viability, T/C: 81.1%
[18]
  viability, T/C: 68.5%
[19]
  viability, T/C: 45.7%
[20]
  viability, T/C: 39%
[5]
  viability, T/C: 72.7%
[21]
  viability, T/C: 82.4%
[6]
  viability, T/C: 66.1%
[22]
  viability, T/C: 58.5%
[23]
  viability, T/C: 41.3%
[24]
  viability, T/C: 36.9%
[7]
  viability, T/C: 85.6%
[25]
  viability, T/C: 80.2%
[8]
  viability, T/C: 77.2%
[26]
  viability, T/C: 57.6%
[27]
  viability, T/C: 42.1%
[28]
  viability, T/C: 35.4%
[9]
  viability, T/C: 82.2%
[29]
  viability, T/C: 77.2%
[10]
  viability, T/C: 64.3%
[30]
  viability, T/C: 63.5%
[31]
  viability, T/C: 33%
[32]
  viability, T/C: 40.6%
[11]
  viability, T/C: 77.4%
[33]
  viability, T/C: 69.6%
[12]
  viability, T/C: 79.1%
[34]
  viability, T/C: 75.4%
[35]
  viability, T/C: 63.2%
[36]
  viability, T/C: 55.5%

## COc1ncnc(C2CC2)c1-c1ncc2cnn(Cc3ccc(-c4nc(C(F)(F)F)cn4C(C)C)cc3)c2n1 + Cc1[nH]c2ccc(F)cc2c1-c1nc2c3cccnc3c3ncccc3c2[nH]1
Second compound 0.0316 µM
  pIC50: 5.09
Second compound 0.1 µM
  pIC50: < 5.00
Second compound 0.316 µM
  pIC50: < 5.00
Second compound 1 µM
  pIC50: < 5.00
Second compound 3.16 µM
  pIC50: < 5.00
Second compound 10 µM
  pIC50: < 5.00
[1]
  viability, T/C: 91.9%
[13]
  viability, T/C: 96.2%
[2]
  viability, T/C: 111%
[14]
  viability, T/C: 87.1%
[15]
  viability, T/C: 64.6%
[16]
  viability, T/C: 46.4%
[3]
  viability, T/C: 106%
[17]
  viability, T/C: 97.4%
[4]
  viability, T/C: 110%
[18]
  viability, T/C: 99.2%
[19]
  viability, T/C: 63.1%
[20]
  viability, T/C: 49.8%
[5]
  viability, T/C: 93%
[21]
  viability, T/C: 116%
[6]
  viability, T/C: 106%
[22]
  viability, T/C: 90.1%
[23]
  viability, T/C: 66.3%
[24]
  viability, T/C: 55.2%
[7]
  viability, T/C: 86%
[25]
  viability, T/C: 110%
[8]
  viability, T/C: 105%
[26]
  viability, T/C: 104%
[27]
  viability, T/C: 72.7%
[28]
  viability, T/C: 54.2%
[9]
  viability, T/C: 67.6%
[29]
  viability, T/C: 70.7%
[10]
  viability, T/C: 71.7%
[30]
  viability, T/C: 77.5%
[31]
  viability, T/C: 63.6%
[32]
  viability, T/C: 60.8%
[11]
  viability, T/C: 58.2%
[33]
  viability, T/C: 53.3%
[12]
  viability, T/C: 73.5%
[34]
  viability, T/C: 47.7%
[35]
  viability, T/C: 60.6%
[36]
  viability, T/C: 50.2%
